Data taken from patent US11344510B2, “Arylcyclohexylamine derivatives and their use in the treatment of psychiatric disorders” (Gilgamesh Pharmaceuticals, Inc., priority 2019, dated 2022).

Test system: T1, monoamine transporters, MATs (SERT, NET, DAT, VMAT2)
T1 construct: rows headed: activity at MATs; stably transfected cells expressing the MAT of interest (HEK293 cells for SERT and NET)
Test: Monoamine uptake inhibition, monoamine transporters collectively
Assay type: cell-based
Conditions: uptake inhibition
Description: The ability of the compounds of the present invention to inhibit uptake of monoamines by the serotonin transporter (SERT), norepinephrine transporter (NET), dopamine transporter (DAT), and vesicular monoamine transporter 2 (VMAT2) (collectively monoamine transporters, MATs) was measured using fluorescent substrate uptake assays in transfected cells (Table 14). The binding affinities of select compounds were also determined in radioligand displacement assays at SERT, NET, and/or DAT (Table 14).
Uptake Inhibition. The ability of test compounds to block monoamine uptake by SERT, NET, DAT, and VMAT2 was determined using the Neurotransmitter Transporter Uptake Assay Kit manufactured by Molecular Devices (Cat #R8173). Briefly, stably transfected cells expressing the MAT of interest (HEK293 cells for SERT and NET; CHO cells for DAT) were grown and plated into 384-well plates at a concentration of 20,000 cells per well. Plates were then incubated for 16-20 h at 37° C. and 5% CO2. The medium was then aspirated and replaced with 25 μL of assay buffer (20 mM HEPES in HBSS, containing 0.1% BSA) containing the test compounds at the appropriate concentrations. Plates were then centrifuged at 300 rpm for 15 s and then incubated at 37° C. for 30 minutes. At this time, 25 μL of the proprietary fluorescent dye solution was added, the plates were incubated at 37° C. for 60 minutes, and then fluorescence was quantified on a plate reader (excitation wavelength=440 nm, emission wavelength=520 nm). The proprietary dye solution contains a mixture of 1) a fluorescent dye that mimics the endogenous substrates of MATs and is thereby actively transported to the intracellular compartment in the absence of an inhibitor and 2) a masking dye that inhibits the fluorescence of dye 1 in the extracellular compartment. Therefore, the overall fluorescence of the system increases as the fluorescent dye is transported into the cells.

With `O=C1CCCCC1(c1ccccc1)N1CCOCC1` (stereo not shown) [Compound 31] the “activity at MATs” value was “almost no activity”.
